≈ marks a conversion by molar mass, not a printed value. Entries after “also recorded” stand apart in the source; their conditions may differ.
Legend:
HFD-fed mice = test: HFD-induced obesity/diabetes mice, 5-day oral courses at weeks 8/9 and 12; type: in vivo
From the text: (§1) Animals. The generation of Cxxc5^−/− mice has been described previously. Cxxc5 heterozygous mice were intercrossed for four generations to obtain littermate wild-type and Cxxc5^−/− mice and were maintained on a C57BL/6 background. Six-week-old Cxxc5^+/+ and Cxxc5^−/− mice were fed HFD for 8 weeks. Wild-type male C57BL/6 mice (KOATECH, Seoul, Korea) were fed HFD consisting of 60% calories from fat (Research Diet, D12492) for 8 weeks. To validate that the insulin resistance mouse model was successfully established, fasting glucose levels were assessed with a One Touch Ultra glucometer (LifeScan). Subsequently, each HFD-fed mouse with a fasting glucose level higher than 16.7 mmol/L was orally administered A3334 (25 mg kg^−1), sitagliptin (50 mg kg^−1), or metformin (100 mg kg^−1) each day for 5 days at weeks 8 and 12. After the removal of the drugs, mice were maintained for 3 weeks on the HFD. To monitor pancreas regeneration, six-week-old Cxxc5^+/+ and Cxxc5^−/− mice were fed an HFD as above. After dietary treatment for 4 weeks, the mice were intraperitoneally injected with STZ (50 mg/kg/d) for 1 week and the control group were injected with saline. After 2 weeks, Cxxc5^+/+ mice were administered A3334 (25 mg kg^−1) and sitagliptin (50 mg kg^−1) per day by oral gavage for 4 weeks. For GTT or ITT, mice were injected with D-glucose (1.5 g/kg body weight) after overnight starvation or human insulin (0.75 units/kg body weight) after 4 h starvation, respectively. Tail blood was drawn at 0, 15, 30, 60, 120, 180 min intervals and blood glucose level was measured with a One Touch Ultra glucometer. All mice were maintained under temperature-controlled and light-controlled (standard 12 h light/dark cycle) conditions and provided with food and water ad libitum. All protocols were reviewed and approved by the Institutional Review Board of Severance Hospital, Yonsei University College of Medicine (09-013).
Blood chemistry. Total blood of mice was collected by cardiac puncture after fasting. The blood was allowed to clot for 30 min and was then centrifuged for 10 min at 1,000×g to obtain supernatant to measure metabolic parameters. ELISA assay kits were used to assess serum insulin (Millipore), serum FFA (Cayman Chemical), serum adiponectin (ABclonal). The insulin function test was evaluated by HOMA-IR and was calculated as fasting plasma glucose (m mol/l)×fasting serum insulin (mU/l)/22.5. Serum chemistry variables included total cholesterol, HDL-cholesterol, glucose, TG, ALT, AST, ALP, Ca, and Mg concentration. The calibration of serum parameters was performed using the quality control card supplied with the FUJI DRI-CHEM slides whenever slides from a new lot were used. […]
Hematoxylin and eosin (H&E) staining. Dissected tissues were fixed in 4% neutral paraformaldehyde and embedded in paraffin. The paraffin sections were cut at a thickness of 4 μm and subjected to H&E staining. The adipocyte cell size was measured in 20 randomly chosen microscopic areas from 3 independent animals using a Nikon bright-field optical microscope (Nikon TE-2000U). The average adipocyte size was determined using Image J software. […]
Metabolic monitoring and body composition. Metabolic performance (energy intake and energy expenditure) was studied using a PHENOMASTER automated combined indirect calorimetry system (TSE system GmBH). The mice were first acclimated for 24 h in a metabolic chamber and were provided with food and water. They were then subsequently evaluated for 3 days to measure oxygen consumption (VO2), carbon dioxide production (VCO2), ambulatory counts, and respiratory exchange ratio. An LF50 body composition analyzer (Bruker) was used to determine body composition (lean body mass and total body fat) of the mice. The temperature for these studies remained at 22° C., with a 12 h light/dark cycle. Standard in-house software was used for energy expenditure.
Quantitative real-time polymerase chain reaction (PCR). […]

[1] = tested on: HFD+STZ-induced diabetes mice; test: HFD-fed and STZ-induced diabetes mice; type: in vivo
From the text: as §1
β-Cell and α-cell mass analyses. All of the β-cell, α-cell and the cross-sectional area of all pancreatic tissue were quantified. Total β-cell and α-cell area and total pancreas mass for each animal was calculated as the sum of the determinations from each of the 8-10 segments of pancreas. A total of 10-15 beta cells was counted for each pancreas.
A3334 suppressed diabetes induced by multiple low-dose STZ-induced diabetes. Referring now to FIG. 40A-40G, C57BL/6N mice were induced diabetes by HFD for 8 weeks, and induced diabetes by injection of 50 mpk streptozotosin (STZ) for 1 week. After 2 weeks, A3334 (25 mpk) or SITA (25 mpk) was applied for 4 more weeks, histological analyses of pancreas were done.

normal (Chow) mice = test: normal diet (NCD/Chow) fed mice treated with A3334; type: in vivo
From the text: No effect of A3334 on mice fed with normal diet. To evaluate whether the A3334 treatment would have any effect on normal diet fed mice, C57BL/6N mice were fed normal diet for 16 weeks with or without oral administration of 25 mpk A3334.

[2] = solubility of A3334 in oil or surfactants (LC/MS/MS); type: physicochemical; conditions: 37 °C, thermodynamic from solid
Experimental: To determine emulsion solution, solubility of A3334, for example, is measured in the several oil and surfactants. A3334 is mixed with oil or surfactants (1 ml) and vortexed for 30 min. The equilibrium state was reached by shaking for 72 hours at 37° C. with 50 rpm speed in an incubator, then centrifuged at 16,100×g for 5 min. The supernatant was diluted with methanol and analyzed by LC/MS/MS (see e.g., Table 7).
‘Waters xevo TQ MS-ACQUITY UPLC System’ is used as an analyses equipment. ACQUITY UPLC® BEH(C18, 1.7 μm, 2.1×50 mm) column was used for analyses at room temperature. Mobile phase is used after filtration of deionized distilled water including 0.1% formic acid and acetonitrile including 0.1% formic acid (30:70, v/v) with […] membrane filter. The flow rate is 0.25 ml/min and it is analyzed by injection of 0.5 μl sample. There are LC/MS/MS conditions for Decursin analysis; Cone 38 V, Collison 32 V. Precursor ion and daughter ion are monitored 329 and 229 m/z, respectively.

[3] = HFD mice, 5-day courses at weeks 8/9 and 12, A3334 25 mg/kg, 25 mg/kg

solubility at 72 h ([2]; oil or lipid, Oil: Olive oil): 0.83 mg/mL (≈ 2.7 mM)
solubility at 72 h ([2]; oil or lipid, Oil: Sunflower oil): 1.35 mg/mL (≈ 4.39 mM)
solubility at 72 h ([2]; organic solvent or mixture, Co-Surfactant: Propylene glycol): 0.25 mg/mL (≈ 0.814 mM)
solubility at 72 h ([2]; organic solvent or mixture, Co-Surfactant: Transcutor P): 1.15 mg/mL (≈ 3.74 mM)
solubility at 72 h ([2]; KOLLIPHOR EL (listed as oil), aqueous with cosolvent or surfactant or cyclodextrin, Oil: KOLLIPHOR EL): 5.4 mg/mL (≈ 17.6 mM)
solubility at 72 h ([2]; PEG 400 (co-surfactant), organic solvent or mixture, Co-Surfactant: PEG 400): 3.1 mg/mL (≈ 10.1 mM)
solubility at 72 h ([2]; Tween 20 (surfactant), aqueous with cosolvent or surfactant or cyclodextrin, Surfactants: Tween 20): 4.58 mg/mL (≈ 14.9 mM)
solubility at 72 h ([2]; Tween 80 (surfactant), aqueous with cosolvent or surfactant or cyclodextrin, Surfactants: Tween 80): 4.92 mg/mL (≈ 16 mM)
SMILES: COc1ccc2c(c1)/C(=C1/Nc3ccccc3/C1=N\O)C(=O)N2 [Compound A3334, 5-Methoxyindirubin-3′-oxime]
thermogenesis and beige-fat markers in scWAT (HFD-fed mice; HFD (DIO) mice): exhibited elevated thermogenesis and beige-fat markers
Ca++ and Mg++ levels in serum (HFD-fed mice; HFD mice): without any effect on Ca^++ and Mg^++ imbalance; also recorded: not significantly changed
F4/80+ and CD11b+ cells / inflammation in adipose tissue (HFD-fed mice; HFD mice): the populations of F4/80^+ and CD11b^+ cells decreased; also recorded: also suppressed by A3334
energy expenditure and activity (HFD-fed mice; HFD mice): increases energy expenditure via enhancing brown- and beige-fat activation; also recorded: higher energy expenditure and more active behavior than vehicle-treated mice
mRNA of M1 and M2 macrophage marker genes in epiWAT (HFD-fed mice; HFD mice): decreased and increased in the epiWAT of A3334-treated mice, respectively
respiratory exchange ratio (HFD-fed mice; HFD mice): lower respiratory exchange ratio
serum ALT, AST, FFA (and TG) (HFD-fed mice; HFD mice): mostly suppressed by the A3334 treatment; also recorded: reduced by A3334; also recorded: also lowered by A3334; also recorded: significantly lowered by A3334
transition of brown adipocytes to white adipocytes, UCP1 and GLUT4 (HFD-fed mice; HFD mice): suppressed by the A3334 treatment together with recovery of the levels of UCP1 and GLUT4
serum adiponectin level (HFD-fed mice; HFD mice (FIG. 38G)): increased by A3334
glucose tolerance and insulin tolerance (GTT/ITT) (HFD-fed mice; [3]): significantly improved the systemic glucose tolerance and insulin resistance; also recorded: most significantly reduced by A3334
insulin resistance (fasting insulin, HOMA-IR) (HFD-fed mice; [3]): improves diet-induced obesity and insulin resistance; also recorded: improved insulin resistance; also recorded: reduced by A3334; also recorded: mostly resolved by A3334 administration
body weight and food intake (HFD-fed mice; HFD mice, A3334 25 mg/kg): the body weights were decreased without significant changes in food intake
fat mass (body composition, tissue weights) (HFD-fed mice; HFD mice, A3334 25 mg/kg): reduction of overall fat mass
levels of GTT/ITT, total cholesterol, fasting glucose, triglyceride, FFAs in serum (HFD-fed mice; HFD mice, A3334 25, metformin 100, sitagliptin 50 mpk (FIG. 38B-38F)): most significantly reduced by A3334
hepatic steatosis (lipid droplets, fatty liver, hepatic TG) (HFD-fed mice; HFD mice, H&E, Oil Red O): did not form lipid droplets with a reduction in the hepatic TG levels; also recorded: totally abolished by the A3334 treatment; also recorded: suppressed by A3334
Cxxc5 and β-catenin expression in epiWAT (HFD-fed mice; HFD mice, IHC): Cxxc5 expression was mostly abolished and only a small amount remained in the nucleus with the elevation of nuclear β-catenin
UCP1 protein level in BAT and scWAT (HFD-fed mice; HFD mice, IHC): the protein level increment of the major thermogenin uncoupling protein 1 (UCP1) was confirmed in BAT and scWAT
crown-like structures and adipocyte size in white adipose tissue (HFD-fed mice; HFD mice, epiWAT/WAT, H&E): significantly decreased the number of CLSs as well as the size of adipocytes; also recorded: suppressed HFD-induced increase in cell size and the expression of PPARγ and C/EBPα; also recorded: inhibited by the A3334 treatment
oxygen consumption (VO2) and carbon dioxide production (VCO2) (HFD-fed mice; HFD mice, light and dark periods): consumed higher oxygen (VO2) and exhaled more carbon dioxide (VCO2)
Wnt/β-catenin signaling target genes in liver (HFD-fed mice; HFD mice, mRNA): induction of Wnt/β-catenin signaling target genes; also recorded: significantly increased by A3334 treatment
Wnt/β-catenin target genes and lipogenesis/inflammation genes in white adipose tissue (HFD-fed mice; HFD mice, mRNA): upregulated with the regression of the lipogenesis genes; also recorded: significantly lowered by the A3334 treatment
lipogenesis and gluconeogenesis genes in liver (HFD-fed mice; HFD mice, mRNA): repressed in the liver of A3334-treated mice; also recorded: significantly lowered by the A3334 treatment; also recorded: reduced by both A3334 and SITA, but A3334 showed better effectiveness
thermogenesis / mitochondria biogenesis markers in BAT (HFD-fed mice; HFD mice, mRNA): significantly elevated expression levels of the key thermogenesis markers; also recorded: all increased by the A3334 treatment
persistence of fasting glucose control after end of treatment (HFD-fed mice; HFD mice, p.o. daily 5 days at weeks 8/9 and 12, A3334 25, sitagliptin 50, metformin 100 mg/kg): prolonged effectiveness for the control of fasting glucose levels; also recorded: unexpected long-lasting glucose controlling effect; also recorded: long lasting effect in suppression of fast glucose level; also recorded: most significant and long last effects on fasting glucose control effect
fasting glucose level (HFD-fed mice; HFD mice, p.o. daily 5 days at weeks 8/9 and 12, A3334, A3051, I3O 25, sitagliptin 50, metformin 100 mg/kg): lower in the A3334 treatment than in the sitagliptin and metformin treatment groups; also recorded: reduced similarly by treatment with all of these compounds at initial applications
endocrine and metabolic parameters: total cholesterol, HDL-cholesterol, TG, adiponectin (HFD-fed mice; HFD mice, plasma, overnight fasted): much better effects than sitagliptin- and metformin-treated mice
secretory proteins/adipokines, protein chip (HFD-fed mice; HFD mice, serum): decreased the expression levels of various secretory proteins
body weight [1]: slightly increased
proliferative status of β-cells (PCNA+) [1]: exhibited normal proliferative status after the A3334 treatment
glucose tolerance test and insulin tolerance test ([1]; 4 weeks p.o.): improved the results from the glucose tolerance test (GTT) and insulin tolerance test (ITT)
blood / fasting glucose level ([1]; A3334 25 mpk, SITA 25 mpk, 4 weeks): lowered the glucose level; also recorded: more significantly lowered by A3334 compared to that by SITA
β-cell and α-cell mass ([1]; IHC insulin and glucagon): increased and decreased, respectively, by the A3334 treatment
pancreatic islets / β-cells (insulin, β-catenin, PCNA, Pdx-1) ([1]; histology/IHC): restores β-cell mass and functions; also recorded: showed normal islets with insulin secretion and increased expression levels of β-catenin, PCNA, and Pdx-1; also recorded: mostly protected with the A3334 treatment
effect on normal diet fed mice (fat size, organ weight, ALT and AST) (normal (Chow) mice; 25 mg/kg/d p.o.): has no effect in NCD mice; also recorded: did not have any effect on normal (Chow) mice; also recorded: no observation of metabolic disease phenotypes; also recorded: did not show any differences on size of fats (FIG. 36A-36B), weight of organs (FIG. 36D), and level of ALT and AST in blood serum
histology of normal diet fed mice (normal (Chow) mice; 25 mpk p.o.): no histological differences were observed
